Assay results from patent publication US20250388574A1, “HETEROCYCLIC COMPOUNDS AS TRIGGERING RECEPTOR EXPRESSED ON MYELOID CELLS 2 AGONISTS AND METHODS OF USE” (AMGEN INC., priority 2020, published 2025).

Biological target: hTREM2 (Homo sapiens, UniProt Q9NZC2)
Experiment: Phospho-Syk AlphaScreen/AlphaLISA assay in TREM2 and DAP12 overexpressing HEK293 cells (Example A1)
Format: cell-based
Set-up: expressed in transfected cells
Conditions: HEK293 cells; for EC50: read-out: hTREM2 EC50
Outline: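 Single-cell-cloned HEK293 stably overexpressing TREM2 and DAP12, plated 20,000 cells/well for 20 h, then exposed to compounds (1% DMSO) 45 min at room temperature. Lysates probed for phospho-Syk by AlphaLISA sandwich (anti-pSyk, biotinylated anti-Syk); signal normalized to percent of control (100 nM anti-TREM2 antibody vs isotype) and fitted by 4-parameter logistic.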

Chain of hTREM2 (Q9NZC2 19-230): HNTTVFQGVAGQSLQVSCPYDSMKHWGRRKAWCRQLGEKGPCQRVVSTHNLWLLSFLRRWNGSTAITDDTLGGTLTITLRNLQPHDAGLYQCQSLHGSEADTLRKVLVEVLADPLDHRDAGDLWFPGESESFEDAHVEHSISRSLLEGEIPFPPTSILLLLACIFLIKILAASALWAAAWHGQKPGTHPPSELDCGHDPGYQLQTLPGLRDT
Chain of hTREM2 (O43914 22-113 partner): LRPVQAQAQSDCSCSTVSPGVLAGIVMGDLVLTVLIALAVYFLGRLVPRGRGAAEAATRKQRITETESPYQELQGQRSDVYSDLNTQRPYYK

Row | Compound | Emax | EC50 [nM]
1 | CCn1cc([C@@H]2CN(c3cc4nc(C)n(C)c(=O)c4c(-c4ccc(Cl)cc4F)n3)CCO2)cn1 [Example 197, (R)-5-(4-chloro-2-fluorophenyl)-7-(2-(1-ethyl-1H-pyrazol-4-yl)morpholino)-2,3-dimethylpyrido[4,3-d]pyrimidin-4(3H)-one] | ++++ (Emax>300) | 50 to 500
2 | Cc1nc2cc(N3CC[C@@H](C(F)(F)F)C3)nc(-c3ccc(Cl)cc3F)c2c(=O)n1C [Example 256, (R)-5-(4-chloro-2-fluorophenyl)-2,3-dimethyl-7-(3-(trifluoromethyl)pyrrolidin-1-yl)pyrido[4,3-d]pyrimidin-4(3H)-one] | ++++ (Emax>300) | 3000 to 100000
3 | Cc1nc2cc(N3CCCC(C4CNC(=O)C4)C3)nc(-c3ccc(Cl)cc3F)c2c(=O)n1C (stereo not drawn) [Example 106, 5-(4-chloro-2-fluorophenyl)-2,3-dimethyl-7-(3-(5-oxo-3-pyrrolidinyl)-1-piperidinyl)-pyrido[4,3-d]pyrimidin-4(3H)-one] | +++ (Emax>200 and ≤300) | 50 to 500
4 | Cc1nc2cc(N3CCO[C@@H](c4cnn(CCF)c4)C3)nc(-c3ccc(Cl)cc3F)c2c(=O)n1C [Example 128, 5-(4-chloro-2-fluorophenyl)-7-((2S)-2-(1-(2-fluoroethyl)-1H-pyrazol-4-yl)-4-morpholinyl)-2,3-dimethylpyrido[4,3-d]pyrimidin-4(3H)-one] | +++ (Emax>200 and ≤300) | < 50
5 | Cc1nc2cc(N3CCO[C@@H](c4cnn(C)c4)C3)nc(-c3cc(F)ccc3F)c2c(=O)n1C [Example 228, (S)-5-(2,5-difluorophenyl)-2,3-dimethyl-7-(2-(1-methyl-1H-pyrazol-4-yl)morpholino)pyrido[4,3-d]pyrimidin-4(3H)-one] | +++ (Emax>200 and ≤300) | 500 to 3000
6 | Cc1nc2cc(N3CCO[C@H](c4ccnc(Cl)c4)C3)nc(-c3ccc(Cl)cc3F)c2c(=O)n1C (single isomer, unassigned) [Example 88] | +++ (Emax>200 and ≤300) | 500 to 3000
7 | Cc1nc2cc([C@@H]3CCO[C@H](c4cccnc4)C3)nc(-c3ccc(Cl)cc3F)c2c(=O)n1C (single isomer, unassigned) [Example 178] | ++++ (Emax>300) | 500 to 3000
8 | CCCn1c(C)nc2cc(N3CCO[C@@H](c4ccccc4)C3)nc(-c3ccc(Cl)cc3F)c2c1=O [Example 157, 5-(4-chloro-2-fluorophenyl)-2-methyl-7-((2S)-2-phenyl-4-morpholinyl)-3-propylpyrido[4,3-d]pyrimidin-4(3H)-one] | ++++ (Emax>300) | 500 to 3000
9 | Cc1nc2cc(N3C[C@@H](C)O[C@@H](c4ccsc4)C3)nc(-c3ccc(Cl)cc3F)c2c(=O)n1C (single isomer, unassigned) [Example 73] | +++ (Emax>200 and ≤300) | 3000 to 100000
10 | CCCn1c(C)nc2cc(N3CCO[C@H](c4cnn(C)c4)C3)nc(-c3ncc(Cl)cc3C)c2c1=O [Example 195, (R)-5-(5-chloro-3-methylpyridin-2-yl)-2-methyl-7-(2-(1-methyl-1H-pyrazol-4-yl)morpholino)-3-propylpyrido[4,3-d]pyrimidin-4(3H)-one] | + (Emax>45 and ≤100) | 3000 to 100000
11 | Cc1nc2cc(N3CCC[C@H](c4ccncc4)C3)nc(-c3ccc(Cl)cc3F)c2c(=O)n1C (single isomer, unassigned) [Example 114] | +++ (Emax>200 and ≤300) | 50 to 500
12 | Cc1cc(Cl)cnc1-c1nc(N2CCOC(c3cnn(C)c3)C2)cc2nc(C)n(C)c(=O)c12 (stereo not drawn) [Example 16, 5-(5-chloro-3-methyl-2-pyridinyl)-2,3-dimethyl-7-(2-(1-methyl-1H-pyrazol-4-yl)-4-morpholinyl)pyrido[4,3-d]pyrimidin-4(3H)-one] | + (Emax>45 and ≤100) | 3000 to 100000
13 | Cc1nc2cc(N3CCO[C@H](c4ccncc4)C3)nc(-c3ccc(Cl)cc3F)c2c(=O)n1C (single isomer, unassigned) [Example 48] | +++ (Emax>200 and ≤300) | 500 to 3000
14 | Cc1nc2cc([C@@H]3CCO[C@@H](c4cccnc4)C3)nc(-c3ccc(Cl)cc3F)c2c(=O)n1C (relative stereo) [Example 176, 5-(4-chloro-2-fluorophenyl)-2,3-dimethyl-7-((2R,4R)-2-(3-pyridinyl)tetrahydro-2H-pyran-4-yl)pyrido[4,3-d]pyrimidin-4(3H)-one and 5-(4-chloro-2-fluorophenyl)-2,3-dimethyl-7-((2S,4S)-2-(3-pyridinyl)tetrahydro-2H-pyran-4-yl)pyrido[4,3-d]pyrimidin-4(3H)-one] | ++++ (Emax>300) | 500 to 3000
15 | Cc1nc2cc(N3C[C@@H](c4cnn(C)c4)OC[C@H]3C)nc(-c3ccc(Cl)cc3F)c2c(=O)n1C (single isomer, unassigned) [Example 26] | +++ (Emax>200 and ≤300) | 500 to 3000
16 | Cc1c([C@H]2CN(c3cc4nc(C)n(C)c(=O)c4c(-c4ccc(Cl)cc4F)n3)CCO2)cnn1C [Example 262, (S)-5-(4-chloro-2-fluorophenyl)-7-(2-(1,5-dimethyl-1H-pyrazol-4-yl)morpholino)-2,3-dimethylpyrido[4,3-d]pyrimidin-4(3H)-one] | +++ (Emax>200 and ≤300) | 500 to 3000
17 | Cc1nc2cc(N3CCOC(c4ccnn4C)C3)nc(-c3ccc(Cl)cc3F)c2c(=O)n1C (stereo not drawn) [Example 52, 5-(4-chloro-2-fluorophenyl)-2,3-dimethyl-7-(2-(1-methyl-1H-pyrazol-5-yl)-4-morpholinyl)pyrido[4,3-d]pyrimidin-4(3H)-one] | ++++ (Emax>300) | 500 to 3000
18 | Cc1c([C@@H]2CN(c3cc4nc(C)n(C)c(=O)c4c(-c4ccc(Cl)cc4F)n3)CCO2)cnn1C (single isomer, unassigned) [Example 66] | +++ (Emax>200 and ≤300) | 50 to 500
19 | Cc1nc2cc(N3CC[C@@H](C(F)F)C3)nc(-c3ccc(Cl)cc3F)c2c(=O)n1C [Example 258, (R)-5-(4-chloro-2-fluorophenyl)-7-(3-(difluoromethyl)pyrrolidin-1-yl)-2,3-dimethylpyrido[4,3-d]pyrimidin-4(3H)-one] | +++ (Emax>200 and ≤300) | 3000 to 100000
20 | CCCn1c(C)nc2cc(N3CCOC(c4cnn(C)c4)C3)nc(-c3ncc(Cl)cc3F)c2c1=O (stereo not drawn) [Example 21, 5-(5-chloro-3-fluoro-2-pyridinyl)-2-methyl-7-(2-(1-methyl-1H-pyrazol-4-yl)-4-morpholinyl)-3-propylpyrido-[4,3-d]pyrimidin-4(3H)-one] | ++++ (Emax>300) | 50 to 500
21 | Cc1nc2cc(N3CCO[C@@H](c4cnn(C)c4)C3)nc(-c3cccc(F)c3F)c2c(=O)n1C [Example 227, (S)-5-(2,3-difluorophenyl)-2,3-dimethyl-7-(2-(1-methyl-1H-pyrazol-4-yl)morpholino)pyrido[4,3-d]pyrimidin-4(3H)-one] | +++ (Emax>200 and ≤300) | 3000 to 100000
22 | Cc1nc2cc(N3CCc4ncn(C)c4C3)nc(-c3ccc(Cl)cc3F)c2c(=O)n1C [Example 222, 5-(4-chloro-2-fluorophenyl)-2,3-dimethyl-7-(3-methyl-3,4,6,7-tetrahydro-5H-imidazo[4,5-c]pyridin-5-yl)pyrido[4,3-d]pyrimidin-4(3H)-one] | ++ (Emax>100 and ≤200) | 500 to 3000
23 | Cc1nc2cc(N3CCO[C@H](c4cnn(C)c4)C3)nc(-c3ccccc3F)c2c(=O)n1C [Example 218, (R)-5-(2-fluorophenyl)-2,3-dimethyl-7-(2-(1-methyl-1H-pyrazol-4-yl)morpholino)pyrido[4,3-d]pyrimidin-4(3H)-one] | +++ (Emax>200 and ≤300) | 3000 to 100000
24 | Cc1nc2cc(N3CCc4ncccc4C3)nc(-c3ccc(Cl)cc3F)c2c(=O)n1C [Example 248, 5-(4-chloro-2-fluorophenyl)-7-(7,8-dihydro-1,6-naphthyridin-6(5H)-yl)-2,3-dimethylpyrido[4,3-d]pyrimidin-4(3H)-one] | +++ (Emax>200 and ≤300) | 3000 to 100000
25 | COc1cc([C@H]2CN(c3cc4nc(C)n(C)c(=O)c4c(-c4ccc(Cl)cc4F)n3)CCO2)ccn1 (single isomer, unassigned) [Example 82] | ++++ (Emax>300) | < 50
26 | COc1ccc([C@H]2CN(c3cc4nc(C)n(C)c(=O)c4c(-c4ccc(Cl)cc4F)n3)CCO2)cc1 (single isomer, unassigned) [Example 78] | ++++ (Emax>300) | 50 to 500
27 | Cc1nc2cc(N3CCO[C@H](c4cnn(C)c4)C3)cc(-c3ccc(Cl)cc3F)c2c(=O)n1C [Example 221, (R)-5-(4-chloro-2-fluorophenyl)-2,3-dimethyl-7-(2-(1-methyl-1H-pyrazol-4-yl)morpholino)quinazolin-4(3H)-one] | ++++ (Emax>300) | 50 to 500
28 | Cc1noc([C@H]2CCCN(c3cc4nc(C)n(C)c(=O)c4c(-c4ccc(Cl)cc4F)n3)C2)n1 [Example 230, (S)-5-(4-chloro-2-fluorophenyl)-2,3-dimethyl-7-(3-(3-methyl-1,2,4-oxadiazol-5-yl)piperidin-1-yl)pyrido[4,3-d]pyrimidin-4(3H)-one] | ++++ (Emax>300) | 500 to 3000
29 | Cc1nc2cc(N3CCOC(c4ccnc(C(F)(F)F)c4)C3)nc(-c3ccc(Cl)cc3F)c2c(=O)n1C (stereo not drawn) [Example 94, 5-(4-chloro-2-fluorophenyl)-2,3-dimethyl-7-(2-(2-(trifluoromethyl)-4-pyridinyl)-4-morpholinyl)pyrido[4,3-d]pyrimidin-4(3H)-one] | +++ (Emax>200 and ≤300) | < 50
30 | Cc1nc2cc(C3=CC(c4cnn(C)c4)OCC3)nc(-c3ccc(Cl)cc3F)c2c(=O)n1C (racemic) [Example 164, 5-(4-chloro-2-fluorophenyl)-2,3-dimethyl-7-(6-(1-methyl-1H-pyrazol-4-yl)-3,6-dihydro-2H-pyran-4-yl)pyrido[4,3-d]pyrimidin-4(3H)-one] | +++ (Emax>200 and ≤300) | 50 to 500
